Data published in patent US9522141B2, “Indazole compounds as aldosterone synthase inhibitors” (Merck Sharp & Dohme Corp., priority 2012, dated 2016).

Experiments:
human CYP11B2 = target: T1, human CYP11B2 (Homo sapiens, UniProt P19099); test: V79-Human-CYP11B2 cell assay; type: cell-based; conditions: V79 cells stably expressing human CYP11B2; 125 nM 11-deoxycorticosterone substrate; aldosterone by HTRF
T1 construct: expressed in transfected cells; host or cells: V79 cells (clone V79-hCYP11B2-CLE9)
T1 sequence (P19099 25-503): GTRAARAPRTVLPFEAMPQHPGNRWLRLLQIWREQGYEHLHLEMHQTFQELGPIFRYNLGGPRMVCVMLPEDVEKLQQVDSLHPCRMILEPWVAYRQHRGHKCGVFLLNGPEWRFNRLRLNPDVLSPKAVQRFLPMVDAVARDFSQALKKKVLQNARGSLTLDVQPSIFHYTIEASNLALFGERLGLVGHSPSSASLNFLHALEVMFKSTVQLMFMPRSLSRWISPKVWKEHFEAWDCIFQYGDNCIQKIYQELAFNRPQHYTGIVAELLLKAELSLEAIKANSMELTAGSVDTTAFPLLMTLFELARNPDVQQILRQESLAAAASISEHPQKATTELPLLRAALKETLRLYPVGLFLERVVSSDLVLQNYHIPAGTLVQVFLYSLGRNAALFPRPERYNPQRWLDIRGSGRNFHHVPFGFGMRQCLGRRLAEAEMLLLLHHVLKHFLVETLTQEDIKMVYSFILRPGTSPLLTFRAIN
Experimental: (§1) Methods for V79-Human-CYP11B2 and V79-Human-CYP11B1 Assays: V79 cell lines stably expressing the either the human CYP11B2 or the human CYP11B1 enzyme were generated using a standard transfection protocol. V79 cells were transfected with plasmids pTriEx3-Hygro-hCyp11B2 or pTriEx3-Hygro-hCyp11B1 using Lipofectamine2000 reagent. […] Single cell clones were generated by […] in DMEM supplemented with 10% FBS and 400 μg/mL hygromycin until single colonies were obtained. […] The reaction was carried out for 3 hours at 37° C., 5% CO2 and was stopped by harvesting the supernatants. […] IC50s for the inhibitor were determined by plotting the amount of product formed against the concentration of inhibitor using sigmoidal dose-response curve (variable slope) fit in GraphPad.

human CYP11B1 = target: T2, human CYP11B1 (Homo sapiens, UniProt P15538); test: V79-Human-CYP11B1 cell assay; type: cell-based; conditions: V79 cells stably expressing human CYP11B1; 250 nM 11-deoxycortisol substrate; cortisol by HTRF
T2 construct: expressed in transfected cells; host or cells: V79 cells (clone V79-hCYP11B1-8CLC7)
T2 sequence (P15538 25-503): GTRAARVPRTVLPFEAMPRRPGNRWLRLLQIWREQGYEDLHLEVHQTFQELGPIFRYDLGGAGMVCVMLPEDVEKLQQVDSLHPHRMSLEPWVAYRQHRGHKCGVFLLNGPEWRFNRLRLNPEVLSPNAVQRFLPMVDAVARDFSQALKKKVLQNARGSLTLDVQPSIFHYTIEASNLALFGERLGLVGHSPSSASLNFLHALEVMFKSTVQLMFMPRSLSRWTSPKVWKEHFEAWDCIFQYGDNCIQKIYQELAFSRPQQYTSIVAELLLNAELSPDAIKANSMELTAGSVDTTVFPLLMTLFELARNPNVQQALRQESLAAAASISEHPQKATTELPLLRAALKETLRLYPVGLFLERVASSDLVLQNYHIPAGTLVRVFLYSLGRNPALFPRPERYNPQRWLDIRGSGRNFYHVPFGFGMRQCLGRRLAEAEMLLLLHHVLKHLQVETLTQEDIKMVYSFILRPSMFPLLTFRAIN
Experimental: as §1

SMILES	IC50 (human CYP11B2) [nM]	IC50 (human CYP11B1) [nM]
CC(C)(O)c1cncc(-n2ncc3cc(F)c(F)cc32)c1 [Example 54, 2-(5-(5,6-difluoro-1H-indazol-1-yl)pyridin-3-yl)propan-2-ol]	23	305
CN(C)c1cncc(-n2ncc3c(Cl)cccc32)n1 [Example 88, 6-(4-chloro-1H-indazol-1-yl)-N,N-dimethylpyrazin-2-amine]	17.5	633
CC(O)(c1cncc(-n2ncc3c2CCCC3)c1)C(F)(F)F (centres unmarked) [Example 75]	7.7	498
Cc1nn(-c2cncc(C(F)(F)F)c2)c2cccc(F)c12 [Example 36, 4-fluoro-3-methyl-1-(5-(trifluoromethyl)pyridin-3-yl)-1H-indazole]	17	257
Fc1cc2cnn(-c3cncc4ccccc34)c2cc1F [Example 46, 4-(5,6-difluoro-1H-indazol-1-yl)isoquinoline]	1.9	107

Results, then the compound that gave them:

IC50 (human CYP11B2) [nM]	IC50 (human CYP11B1) [nM]	SMILES
131	1800	CCc1c(F)cncc1-n1ncc2c(F)cccc21 [Example 42, 1-(4-ethyl-5-fluoropyridin-3-yl)-4-fluoro-1H-indazole]
1.2	36.4	CC(C)(O)c1cncc(-n2ncc3cccc(F)c32)c1 [Example 68, 2-(5-(7-fluoro-1H-indazol-1-yl)pyridin-3-yl)propan-2-ol]
83	1910	Fc1ccc2c(cnn2-c2cncc(C(F)(F)F)c2)c1 [Example 6, 5-fluoro-1-(5-(trifluoromethyl)pyridin-3-yl)-1H-indazole]
1.6	31.5	Clc1cccc2c1cnn2-c1cncc(N2CCC2)n1 [Example 90, 1-(6-azetidin-1-ylpyrazin-2-yl)-4-chloro-1H-indazole]
2.2	98	C[C@](O)(c1cncc(-n2ncc3c(C(F)(F)F)cccc32)c1)C(F)(F)F [Example 85, (S)-1,1,1-trifluoro-2-(5-(4-(trifluoromethyl)-1H-indazol-1-yl)pyridin-3-yl)propan-2-ol]
